Test results from US7691985B2, “Skeletal-targeted radiation to treat bone-associated pathologies” (priority 1999, dated 2010).

System: Multiple myeloma patients
Test: ^166Ho-DOTMP plus melphalan with or without TBI and stem cell transplant, Phase I/II (Examples 7, 11, 13)
Assay type: in vivo, human
Procedure: Multiple myeloma patients (≦65 yrs. of age) that have responded to initial chemotherapy or have primary refractory disease or chemotherapy responsive relapse, but who are not in refractory relapse are treated. Patients are well hydrated with fluids during the day prior to the diagnostic dose. An initial diagnostic dose of 30 mCi of ^166Ho-DOTMP is administered to confirm the selective localization to the skeleton, establish the in-vivo pharmacokinetics and provide radiation dosimetry estimates for the red marrow. Assuming >15% of the ^166Ho-DOTMP accumulates in bone following the injection, the amount of ^166Ho-DOTMP required for therapy is calculated based on delivering a specified radiation absorbed dose to the marrow. Patients receive the therapeutic dose by intravenous injection over 5-10 minutes, given over 1-3 days >48 hrs after the dosometry (test) dose.
The time line for conducting the investigation is as follows: Test dose ^166Ho-DOTMP (30 mCi); ^166Ho scan image (0, 4-6, 20-24 hr.); Blood samples for dosimetry (10, 30 min, 1, 2, 6, 20-24 hr.); Urine samples (0-6, 6-12, 12-24, 24-48 hr.); and External whole body probe (0, 2, 6, 24 and 48 hr.).
Melphalan is administered 48 hr prior to the predicted PBSC infusion based upon dosimetry assessment from the test dose. PBSC infusion is administered when bone marrow dose from ^166Ho is ≦1 cGy/hr. Patients were treated at 20, 30, 40 and prospectively 50 Gy, and with 140 mg/m^2 and 200 mg/m^2 melphalan.
The MTD was defined as the level that is associated with a true toxicity rate of 20%, where toxicity for these purposes was taken to be grade 3 or greater extramedullary drug related toxicity.
All toxicities encountered during the study will be evaluated according to Bearman criteria (Bearman et al., J Clin Oncol, 6,1562, (1988)). Graft failure is considered a grade 3 toxicity. Graft failure is defined as failure to recover granulocytes to 0.5×10^9/l or platelets 20×10^9/l within 28 days of transplant or a fall to less than these levels for 3 or more consecutive days after day 28 without other apparent cause. Hematopoietic recovery (engraftment) is defined as having a sustained granulocyte count of 0.5×10^9/l for two consecutive counts post transplant and a platelet count 20×10^9/l for seven consecutive counts post transplant, without transfusion support. The first of two counts for the granulocyte count and the first of seven counts for the platelet count are considered the day of engraftment.
Patients undergo blood stem cell infusion at the time when ongoing radiation to the marrow falls to <1 rad/hr, and at least 24 hours after melphalan infusion. The total volume of stored cells is infused into a free flowing IV line primed with normal saline. Patients are premedicated with acetaminophen 650 mg PO and diphenhydramine 50 mg PO or IV. All patients receive conventional supportive care for autologous/syngeneic blood and marrow transplantation, (such as allopurinol, menstrual suppression, prophylactic antibiotics, empiric antibiotics, IV Ig, transfusions of blood products, hyperalimentation, and the like).
Patients, afflicted with multiple myeloma, were treated according to the method of the present invention. The dosage range of radiation from the complex was 460 mCi to 4.5 Ci.
Fifty-three patients received intravenous hydration only, while 30 patients received both IV hydration and continuous bladder irrigation.
In order to achieve a complete response using protocol criteria, a patient must have a complete absence of any myeloma protein in the blood/urine and marrow post treatment. The patient must have normal bone marrow with complete resolution of plasmocytomas and no increase in bone lesions. To meet international standards, this must be maintained for 6 weeks. While response rates to a conventional high dose therapy vary widely, in general for previously treated patients, there is a range of 5-25% CR rate. […]

[1] = 140 mg/m^2 melphalan w/ TBI, 20 Gy to marrow
[2] = 140 mg/m^2 melphalan w/ TBI, 30 Gy to marrow
[3] = 140 mg/m^2 melphalan w/ TBI, 40 Gy to marrow
[4] = 140 mg/m^2 melphalan w/o TBI, 20 Gy to marrow
[5] = 140 mg/m^2 melphalan w/o TBI, 30 Gy to marrow
[6] = 140 mg/m^2 melphalan w/o TBI, 40 Gy to marrow
[7] = 200 mg/m^2 melphalan w/o TBI, 20 Gy to marrow
[8] = 200 mg/m^2 melphalan w/o TBI, 30 Gy to marrow
[9] = 200 mg/m^2 melphalan w/o TBI, 40 Gy to marrow
[10] = 40 patients who received 200 mg/m^2 melphalan and were not in CR at treatment
[11] = nine patients, 750+/−10% mCi/m^2
[12] = nine patients, dose 750 mCi/m^2 (±10%)
[13] = patients who received more than 1500 mCi
[14] = patients who received ≦1500 mCi
[15] = ≦30 Gy marrow dose, 35 evaluable patients

Q: How did the “Days to ANC > 500” value [1] turn out when O=P([O-])(O)CN1CCN(CP(=O)(O)O)CCN(CP(=O)([O-])O)CCN(CP(=O)(O)O)CC1.[166Ho] [^166Ho-DOTMP] was run?
A: Its value is 9 days.

Q: What about the “Days to Platelets > 20,000” value [1] of the same compound?
A: Its value is 12 days.

Q: What about the “Number of Patients w/ Grade 3 Toxicity” value [1] of the same compound?
A: Its value is 0/8.

Q: What about the “Days to ANC > 500” value [2] of the same compound?
A: The value was 11 days.

Q: And the “Days to Platelets > 20,000” value [2]?
A: Its value is 12 days.

Q: And the “Number of Patients w/ Grade 3 Toxicity” value [2]?
A: Its value is 1/8.

Q: What about the “Days to ANC > 500” value [3] of the same compound?
A: Its value is 9 days.

Q: What about the “Days to Platelets > 20,000” value [3] of the same compound?
A: The value was 13 days.

Q: What about the “Number of Patients w/ Grade 3 Toxicity” value [3] of the same compound?
A: Its value is 0/20.

Q: And the “Complete Response” value (140 mg/m^2 melphalan w/ TBI, all marrow doses)?
A: The value was 7/17.

Q: And the “Days to ANC > 500” value [4]?
A: Its value is 10 days.

Q: And the “Days to Platelets > 20,000” value [4]?
A: The value was 10 days.

Q: And the “Number of Patients w/ Grade 3 Toxicity” value [4]?
A: The value was 0/5.

Q: And the “Days to ANC > 500” value [5]?
A: The value was 16 days.

Q: What about the “Days to Platelets > 20,000” value [5] of the same compound?
A: Its value is 10 days.

Q: And the “Number of Patients w/ Grade 3 Toxicity” value [5]?
A: Its value is 0/4.

Q: What about the “Days to ANC > 500” value [6] of the same compound?
A: The value was 12 days.

Q: And the “Days to Platelets > 20,000” value [6]?
A: Its value is 10 days.

Q: What about the “Number of Patients w/ Grade 3 Toxicity” value [6] of the same compound?
A: The value was 0/7.

Q: And the “Complete Response” value (140 mg/m^2 melphalan w/o TBI, all marrow doses)?
A: The value was 3/14.

Q: What about the patients alive (200 mg/m^2 melphalan patients, mean follow-up time 39.4 months) of the same compound?
A: Its patients alive is “Sixty-one”.

Q: And the “Days to ANC > 500” value [7]?
A: The value was 10 days.

Q: What about the “Days to Platelets > 20,000” value [7] of the same compound?
A: Its value is 11 days.

Q: And the “Number of Patients w/ Grade 3 Toxicity” value [7]?
A: Its value is 0/4.

Q: What about the “Days to ANC > 500” value [8] of the same compound?
A: Its value is 12 days.

Q: What about the “Days to Platelets > 20,000” value [8] of the same compound?
A: Its value is 10 days.

Q: What about the “Number of Patients w/ Grade 3 Toxicity” value [8] of the same compound?
A: The value was 0/7.

Q: What about the “Days to ANC > 500” value [9] of the same compound?
A: The value was 10.5 days.

Q: What about the “Days to Platelets > 20,000” value [9] of the same compound?
A: The value was 10 days.

Q: What about the “Number of Patients w/ Grade 3 Toxicity” value [9] of the same compound?
A: The value was 0/14.

Q: What about the “Complete Response” value (200 mg/m^2 melphalan w/o TBI, all marrow doses) of the same compound?
A: Its value is 8/9.

Q: What about the complete remission [10] of the same compound?
A: Its complete remission is 39%.

Q: And the partial response [10]?
A: The partial response was 32%.

Q: And the “patients who developed grade 3-4 renal toxicity” value (83 patients)?
A: Its value is “Twenty-five”.

Q: And the “symptoms of long-term kidney dysfunction” value (83 patients, 5-12 months post-therapy)?
A: The value was 40%.

Q: What about the patient deaths (Phase I/II studies, to date) of the same compound?
A: Its patient deaths is 21.

Q: What about the complete response rate (across all ^166Ho-DOTMP/melphalan±TBI doses, 77 patients with response data) of the same compound?
A: The complete response rate was 35%.

Q: And the “patients with a partial response” value (across all doses, 77 patients with response data)?
A: Its value is “Twenty-four”.

Q: And the “Grade 1-3 hemorrhagic cystitis (HC) observed” value (all patients)?
A: The value was 24 patients.

Q: What about the “patients who developed TTP/HUS” value (all treated at 40 Gy or higher to the marrow) of the same compound?
A: The value was “Seven”.

Q: And the “cases of Grade 3-4 renal toxicities” value [11]?
A: The value was “no cases of Grade 3-4 renal toxicities”.

Q: And the “cases of TTP/HUS” value [11]?
A: The value was “no cases of TTP/HUS”.

Q: What about the 2-year survival [12] of the same compound?
A: Its 2-year survival is 100%.

Q: And the CR rate [12]?
A: The CR rate was 44.4%.

Q: What about the “Grade 1-3 hemorrhagic cystitis (HC), patients treated without continuous bladder irrigation (CBI)” value (of the 24 patients with HC) of the same compound?
A: The value was 22 patients.

Q: What about the “cases of TTP and Grade 3 or high renal toxicity” value (patients administered less than 1500 mCi) of the same compound?
A: Its value is “no reported cases”.

Q: What about the “cases of TTP/HUS” value (patients treated at doses, 675 mCi/m^2) of the same compound?
A: The value was “no cases of TTP/HUS occurred”.

Q: What about the “incidence of sustained renal dysfunction” value (patients who received less than 1500 mCi) of the same compound?
A: Its value is 23%.

Q: And the CR rate [13]?
A: Its CR rate is 36%.

Q: What about the Two-year survival [13] of the same compound?
A: The Two-year survival was 67%.

Q: What about the CR rate [14] of the same compound?
A: Its CR rate is 32%.

Q: What about the Two-year survival [14] of the same compound?
A: The Two-year survival was 77%.

Q: What about the “patients with renal dysfunction not related to TTP/HUS or progressive myeloma” value (serum creatinine >2 mg/dL twice or >3 mg/dL once) of the same compound?
A: The value was “nine”.

Q: And the tolerability (with melphalan at 200 mg/m^2)?
A: Its tolerability is “well tolerated”.

Q: What about the “survival of 12 months” value (≦30 Gy marrow dose) of the same compound?
A: The value was 100%.

Q: And the Complete Response [15]?
A: Its Complete Response is 30%.

Q: And the partial response [15]?
A: Its partial response is 32%.

Q: What about the progressive disease [15] of the same compound?
A: The progressive disease was “None”.

Q: And the stable disease [15]?
A: The stable disease was 32%.
